Tests used:
[1] = target: Adenosine receptor A1 (Mesocricetus auratus); assay: Agonist activity at adenosine A1 receptor assessed as inhibition of isoproterenol-stimulated cAMP accumulation in DDT1MF-2 cells
[2] = target: Adenosine receptor A1 (Mesocricetus auratus); assay: Displacement of [3H]CPX from adenosine A1 receptor in DDT1MF-2 cells
[3] = system: Adenosine receptor A1 (Mesocricetus auratus); assay: Intrinsic activity at adenosine A1 receptor assessed as maximal inhibition of isoproterenol-stimulated cAMP accumulation in DDT1MF-2 cells relative to CPA
[4] = system: Adenosine receptor A1 (Mesocricetus auratus); assay: Ratio of Ki to IC50 for adenosine A1 receptor

Compound	IC50 [1] [nM]	Ki [2] [nM]	Intrinsic activity [3]	Ratio [4]
CCCNC[C@H]1O[C@@H](n2cnc3c(N[C@H]4C[C@H]5CC[C@H]4C5)ncnc32)[C@H](O)[C@@H]1O	4950	7200	0.91	1.3
C[Se]C[C@H]1O[C@@H](n2cnc3c(N[C@H]4C[C@@H]5C[C@@H]4C4SC45)ncnc32)[C@H](O)[C@@H]1O (stereo partly drawn)	12	30	0.96	1.3
CNC[C@H]1O[C@@H](n2cnc3c(N[C@H]4C[C@H]5CC[C@H]4C5)ncnc32)[C@H](O)[C@@H]1O	867	> 10000	0.83	1.3
CCNC(=O)[C@H]1O[C@@H](n2cnc3c(N[C@H]4C[C@@H]5C[C@@H]4C4SC45)ncnc32)[C@H](O)[C@@H]1O (stereo partly drawn)	0.12	0.9	0.98	1.3
CC(=O)NC[C@H]1O[C@@H](n2cnc3c(N[C@H]4C[C@H]5CC[C@H]4C5)ncnc32)[C@H](O)[C@@H]1O	605	5860	0.97	1.3
NC[C@H]1O[C@@H](n2cnc3c(N[C@H]4C[C@H]5CC[C@H]4C5)ncnc32)[C@H](O)[C@@H]1O	351	3930	0.92	1.3
CCSC[C@H]1O[C@@H](n2cnc3c(NC4CCCC4)ncnc32)[C@H](O)[C@@H]1O	21	173	1.02	–
CCSC[C@H]1O[C@@H](n2cnc3c(N[C@H]4C[C@H]5CC[C@H]4C5)ncnc32)[C@H](O)[C@@H]1O	28	122	1.04	1.3
O[C@@H]1[C@H](O)[C@@H](CS)O[C@H]1n1cnc2c(N[C@H]3C[C@H]4CC[C@H]3C4)ncnc21	224	283	1	1.3
O[C@@H]1[C@H](O)[C@@H](CF)O[C@H]1n1cnc2c(N[C@H]3C[C@H]4CC[C@H]3C4)ncnc21	7	17	0.97	1.3
CNC(=O)O[C@H]1O[C@@H](n2cnc3c(N[C@H]4C[C@@H]5C[C@@H]4C4SC45)ncnc32)[C@H](O)[C@@H]1O (stereo partly drawn)	410	590	1.03	1.3
